{"source": "patent US20050267067A1", "about": "“Radical reaction inhibitors, method for inhibition of radical reactions, and use thereof” (priority 2002, published 2005)", "key": {"[1]": {"test": "Inhibition of hydroxy radical formation (H2O2/iron sulfate, DMPO spin trap, ESR)", "conditions": "for Amount of formed hydroxy radical: ESR peak ratio to Mn2+ standard, relative value; for Hydroxy radical formation (%): versus system with no saccharide", "protocol": "Each of the resulting mixtures was mixed to initiate reaction, injected into a cell for measuring electron spin resonance spectrum (ESR), set to a detector, and measured for formation level of hydroxy radical at a prescribed period of time after initiating reaction. […] For measurement of ESR, “Free Radical Monitor JES-FR30” was used, and the formation level of hydroxy radical was determined by calculating a ratio of a peak level detected first after initiating the measurement among the characteristic signal peaks characteristic of 5,5-dimethyl-1-pyrroline-oxide-OH (hydroxy radical), used as a spin trapping agent, and a peak level of Mn^2+ of an external standard installed in the apparatus of “JES-FR30”, and expressed as relative values in Table 1."}, "[2]": {"test_system": "low density lipoprotein (LDL)", "test": "Oxidation of low density lipoprotein (LDL) by AAPH, absorbance at 234 nm", "format": "biochemical", "conditions": "for Absorbance at a wavelength of 234 nm Average: 120 min after initiating the reaction", "protocol": "An experiment for examining the influence of cyclotetrasaccharide on the oxidation inhibition for low density lipoprotein (LDL) was conducted as follows: Two and half milliliters of 0.5 mg/ml of a low density lipoprotein (LDL) in phosphate buffered saline (PBS, pH 7.4) was mixed with 2.5 ml of 100 mM PBS solution containing any one of the crystalline cyclotetrasaccharide pentahydrate, crystalline cyclotetrasaccharide monohydrate, and anhydrous crystalline cyclotetrasaccharide, which had been prepared in Experiment 1-1, in PBS or 2.5 ml of PBS free of cyclotetrasaccharide. The resulting mixture was admixed with 50 μl of 100 mM 2,2′-azo-bis(2-amidinopropane)dihydrochloride (AAPH) in PBS (pH 7.4) and reacted at 37° C. The reaction was continued for 240 min to examine changes on time course. […] In Table 2, the results for crystalline cyclotetrasaccharide pentahydrate are only shown because crystalline cyclotetrasaccharide pentahydrate, crystalline cyclotetrasaccharide monohydrate, and anhydrous crystalline cyclotetrasaccharide gave similar results. Also, the influence of cyclotetrasaccharide on the oxidation of a low density lipoprotein (LDL) by AAPH was examined by mixing a 2.5 ml solution containing 0.5 mg/ml of a low density lipoprotein (LDL) in PBS with 2.5 ml of a PBS solution in which the crystalline cyclotetrasaccharide pentahydrate, prepared in Experiment 1-1, had been dissolved to give a concentration of 2 mM, 10 mM or 20 mM, or 2.5 ml of PBS with no cyclotetrasaccharide; and measuring for absorbance at a wavelength of 234 nm for each of the resulting mixtures similarly as above."}, "[3]": {"test": "Preservation of vitamin D3 tablets at 60° C., absorbance at 265 nm", "format": "physicochemical", "conditions": "after preserving for 14 days"}, "sucrase": {"test_system": "sucrase", "test": "Sucrase activity of rat small intestinal mucosal enzyme solution after AAPH oxidation", "format": "biochemical", "protocol": "One milliliter of the above rat small intestinal mucosal enzyme solution, one milliliter of a 100 mM AAPH solution, one milliliter of a 50 mM phosphate buffer (pH 7.2), and one milliliter of a 400 mM of the crystalline cyclotetrasaccharide pentahydrate prepared in Experiment 1-1 were mixed, incubated at 37° C. for two hours, and measured for the activities of sucrase and maltase.\nAfter incubated at 37° C. for 30 min, the mixture was quantified for free glucose by the GOD method."}}, "data": [{"smiles": "OCC1OC2OCC3O[C@H](O[C@H]4C(O)C(CO)OC(OCC5O[C@H](O[C@@H](C1O)C2O)C(O)C(O)[C@@H]5O)C4O)C(O)C(O)[C@@H]3O", "note": "(stereo partly drawn) [Cyclotetrasaccharide, cyclo{→6}-α-D-glucopyranosyl-(1→3)-α-D-glucopyranosyl-(1→6)-α-D-glucopyranosyl-(1→3)-α-D-glucopyranosyl-(1→}]", "values": [{"measurement": "Amount of formed hydroxy radical", "setting": "[1]; 15 mM saccharide", "result": 1.009}, {"measurement": "Hydroxy radical formation (%)", "setting": "[1]; 15 mM saccharide", "result": "(34) %"}, {"measurement": "Hydroxy radical formation (%)", "setting": "[1]; 15 mM saccharide, listed as cyclotetrasaccharide", "result": "about 34%"}, {"measurement": "Amount of formed hydroxy radical", "setting": "[1]; 38 mM saccharide", "result": 0.265}, {"measurement": "Hydroxy radical formation (%)", "setting": "[1]; 38 mM saccharide", "result": "(9) %"}, {"measurement": "Hydroxy radical formation (%)", "setting": "[1]; 38 mM saccharide, listed as cyclotetrasaccharide", "result": "about 9%"}, {"measurement": "Amount of formed hydroxy radical", "setting": "[1]; 75 mM saccharide", "result": 0.228}, {"measurement": "Hydroxy radical formation (%)", "setting": "[1]; 75 mM saccharide", "result": "(8) %"}, {"measurement": "Amount of formed hydroxy radical", "setting": "[1]; 150 mM saccharide", "result": 0.125}, {"measurement": "Hydroxy radical formation (%)", "setting": "[1]; 150 mM saccharide", "result": "(4) %"}, {"measurement": "Formation percentage (%) of LDL oxide", "setting": "[2]; 1 mM cyclotetrasaccharide, 120 min", "result": 76, "unit": "%"}, {"measurement": "Absorbance at a wavelength of 234 nm Average", "setting": "[2]; 1 mM cyclotetrasaccharide", "result": 0.163}, {"measurement": "Formation percentage (%) of LDL oxide", "setting": "[2]; 5 mM cyclotetrasaccharide, 120 min", "result": 35, "unit": "%"}, {"measurement": "Absorbance at a wavelength of 234 nm Average", "setting": "[2]; 5 mM cyclotetrasaccharide", "result": 0.076}, {"measurement": "Absorbance at a wavelength of 234 nm Average", "setting": "[2]; 10 mM cyclotetrasaccharide", "result": 0.028}, {"measurement": "Absorbance at a wavelength of 234 nm", "setting": "[2]; 50 mM cyclotetrasaccharide, 0 min after adding AAPH", "result": 0.0}, {"measurement": "Formation percentage (%) of LDL oxide", "setting": "[2]; 50 mM cyclotetrasaccharide, 30 min, versus system with no cyclotetrasaccharide", "result": 14, "unit": "%"}, {"measurement": "Absorbance at a wavelength of 234 nm", "setting": "[2]; 50 mM cyclotetrasaccharide, 30 min after adding AAPH", "result": 0.018}, {"measurement": "Formation percentage (%) of LDL oxide", "setting": "[2]; 50 mM cyclotetrasaccharide, 60 min, versus system with no cyclotetrasaccharide", "result": 20, "unit": "%"}, {"measurement": "Absorbance at a wavelength of 234 nm", "setting": "[2]; 50 mM cyclotetrasaccharide, 60 min after adding AAPH", "result": 0.042}, {"measurement": "Formation percentage (%) of LDL oxide", "setting": "[2]; 50 mM cyclotetrasaccharide, 120 min, versus system with no cyclotetrasaccharide", "result": 21, "unit": "%"}, {"measurement": "Absorbance at a wavelength of 234 nm", "setting": "[2]; 50 mM cyclotetrasaccharide, 120 min after adding AAPH", "result": 0.046}, {"measurement": "Formation percentage (%) of LDL oxide", "setting": "[2]; 50 mM cyclotetrasaccharide, 180 min, versus system with no cyclotetrasaccharide", "result": 23, "unit": "%"}, {"measurement": "Absorbance at a wavelength of 234 nm", "setting": "[2]; 50 mM cyclotetrasaccharide, 180 min after adding AAPH", "result": 0.056}, {"measurement": "Absorbance at a wavelength of 234 nm", "setting": "[2]; 50 mM cyclotetrasaccharide, 240 min after adding AAPH", "result": 0.064}, {"measurement": "residual vitamin D3 (%)", "setting": "[3]", "result": 61, "unit": "%"}, {"measurement": "Sucrase activity", "setting": "sucrase; enzyme solution incubated with AAPH at 37° C. for two hours, with or without cyclotetrasaccharide", "result": 0.0105, "unit": "u/mg-protein"}, {"measurement": "Sucrase Relative residual activity (%)", "setting": "sucrase; versus system with no AAPH, 37° C., two hours", "result": "(72) %"}]}]}
